From US12338220B2, “Antiviral pyrazolopiridinone compounds” (Novartis AG, priority 2019, dated 2025)
Where two headings read alike, the source gives them in different places.

Key:
CMV-polymerase = CMV-polymerase (Human cytomegalovirus (strain AD169) (HHV-5) (Human herpesvirus 5), UniProt P08546); test: biochemical
CMV = test: microbe, parasite or virus in culture; format: cell-based; settings: Human betaherpesvirus 5, 72 h, read-out: CMV-Luc Cellular EC50, NN-NHDF cells, MOI 1, 72 hrs
[1] = read-out: CMV-polymerase Biochemical IC50
[2] = CMV-polymerase Biochemical IC50

Cc1cc(C#N)ccc1CNC(=O)c1nn(C)c2c1CCN(CC1(S(=O)(=O)C3CC3)CC1)C2=O [Example 12, N-(4-Cyano-2-methylbenzyl)-6-((1-(cyclopropylsulfonyl)cyclopropyl)methyl)-1-methyl-7-oxo-4,5,6,7-tetrahydro-1H-pyrazolo[3,4-c]pyridine-3-carboxamide]
IC50 (CMV-polymerase; [1]): 2 nM
EC50 (CMV): 87 nM

Cn1nc(C(=O)NCc2ccc(C#N)cc2F)c2c1C(=O)N(CC1(S(=O)(=O)C3CC3)CC1)CC2 [Example 13, N-(4-Cyano-2-fluorobenzyl)-6-((1-(cyclopropylsulfonyl)cyclopropyl)methyl)-1-methyl-7-oxo-4,5,6,7-tetrahydro-1H-pyrazolo[3,4-c]pyridine-3-carboxamide]
IC50 (CMV-polymerase; [1]): 6 nM
EC50 (CMV): 102 nM

Cn1nc(C(=O)NCc2ccc(C#N)cn2)c2c1C(=O)N(CC1(S(=O)(=O)C3CC3)CC1)CC2 [Example 14, N-((5-Cyanopyridin-2-yl)methyl)-6-((1-(cyclopropylsulfonyl)cyclopropyl)methyl)-1-methyl-7-oxo-4,5,6,7-tetrahydro-1H-pyrazolo[3,4-c]pyridine-3-carboxamide]
IC50 (CMV-polymerase; [1]): 95 nM
EC50 (CMV): 585 nM

COc1cc(CNC(=O)c2nn(C)c3c2CCN(CC2(S(=O)(=O)C4CC4)CC2)C3=O)ccc1C#N [Example 15, N-(4-Cyano-3-methoxybenzyl)-6-((1-(cyclopropylsulfonyl)cyclopropyl)methyl)-1-methyl-7-oxo-4,5,6,7-tetrahydro-1H-pyrazolo[3,4-c]pyridine-3-carboxamide]
IC50 (CMV-polymerase; [1]): 11 nM
EC50 (CMV): 162 nM

C[C@H](NC(=O)c1nn(C)c2c1CCN(CC1(S(=O)(=O)C3CC3)CC1)C2=O)c1ccc(C#N)cc1 [Example 16, (S)-N-(1-(4-Cyanophenyl)ethyl)-6-((1-(cyclopropylsulfonyl)cyclopropyl)methyl)-1-methyl-7-oxo-4,5,6,7-tetrahydro-1H-pyrazolo[3,4-c]pyridine-3-carboxamide]
IC50 (CMV-polymerase; [1]): 13 nM
EC50 (CMV): 170 nM

C[C@@H](NC(=O)c1nn(C)c2c1CCN(CC1(S(=O)(=O)C3CC3)CC1)C2=O)c1ccc(C#N)cc1 [Example 17, (R)-N-(1-(4-Cyanophenyl)ethyl)-6-((1-(cyclopropylsulfonyl)cyclopropyl)methyl)-1-methyl-7-oxo-4,5,6,7-tetrahydro-1H-pyrazolo[3,4-c]pyridine-3-carboxamide]
IC50 (CMV-polymerase; [1]): 16900 nM
EC50 (CMV): > 10000 nM

Cn1nc(C(=O)N[C@@H](CO)c2ccc(Cl)cc2)c2c1C(=O)N(CC1(S(=O)(=O)C3CC3)CC1)CC2 [Example 18, (R)-N-(1-(4-Chlorophenyl)-2-hydroxyethyl)-6-((1-(cyclopropylsulfonyl)cyclopropyl)methyl)-1-methyl-7-oxo-4,5,6,7-tetrahydro-1H-pyrazolo[3,4-c]pyridine-3-carboxamide]
IC50 (CMV-polymerase; [1]): 22 nM
EC50 (CMV): 301 nM

Cn1nc(C(=O)N[C@H](CO)c2ccc(Cl)cc2)c2c1C(=O)N(CC1(S(=O)(=O)C3CC3)CC1)CC2 [Example 19, (S)-N-(1-(4-Chlorophenyl)-2-hydroxyethyl)-6-((1-(cyclopropylsulfonyl)cyclopropyl)methyl)-1-methyl-7-oxo-4,5,6,7-tetrahydro-1H-pyrazolo[3,4-c]pyridine-3-carboxamide]
IC50 (CMV-polymerase; [1]): 55 nM
EC50 (CMV): > 10000 nM

CCS(=O)(=O)C1(CN2CCc3c(C(=O)NCc4ccc(C#N)cc4)nn(C)c3C2=O)CC1 [Example 20, N-(4-Cyanobenzyl)-6-((1-(ethylsulfonyl)cyclopropyl)methyl)-1-methyl-7-ox0-4,5,6,7-tetrahydro-1 H-pyrazolo[3,4-c]pyridine-3-carboxamide]
IC50 (CMV-polymerase; [1]): 6 nM
EC50 (CMV): 106 nM

Cn1nc(C(=O)NCc2ccc(C#N)cc2)c2c1C(=O)N(CC1(S(C)(=O)=O)CC1)CC2 [Example 21, N-(4-Cyanobenzyl)-1-methyl-6-((1-(methylsulfonyl)cyclopropyl)methyl)-7-oxo-4,5,6,7-tetrahydro-1 H-pyrazolo[3,4-c]pyridine-3-carboxamide]
IC50 (CMV-polymerase; [1]): 9 nM
EC50 (CMV): 147 nM

Cn1nc(C(=O)NCc2ccc(Cl)cc2)c2c1C(=O)N(CC1(S(C)(=O)=O)CC1)CC2 [Example 22, N-(4-Chlorobenzyl)-1-methyl-6-((1-(methylsulfonyl)cyclopropyl)methyl)-7-oxo-4,5,6,7-tetrahydro-1H-pyrazolo[3,4-c]pyridine-3-carboxamide]
IC50 (CMV-polymerase; [1]): 12 nM
EC50 (CMV): 113 nM

Cn1nc(C(=O)NCc2ccc(C#N)c(F)c2)c2c1C(=O)N(CC1(S(C)(=O)=O)CC1)CC2 [Example 23, N-(4-Cyano-3-fluorobenzyl)-1-methyl-6-((1-(methylsulfonyl)cyclopropyl)methyl)-7-oxo-4,5,6,7-tetrahydro-1H-pyrazolo[3,4-c]pyridine-3-carboxamide]
IC50 (CMV-polymerase; [1]): 7 nM
EC50 (CMV): 86 nM

Cn1nc(C(=O)COc2ccc(C#N)cc2)c2c1C(=O)N(CC1(S(=O)(=O)C3CC3)CC1)CC2 [Example 25, 4-(2-(6-((1-(Cyclopropylsulfonyl)cyclopropyl)methyl)-1-methyl-7-oxo-4,5,6,7-tetrahydro-1H-pyrazolo[3,4-c]pyridin-3-yl)-2-oxoethoxy)benzonitrile]
IC50 (CMV-polymerase; [2]): 2 nM
EC50 (CMV): 30 nM

Cn1nc(-c2nnc(Cc3ccc(C#N)cc3)o2)c2c1C(=O)N(CC1(S(=O)(=O)C3CC3)CC1)CC2 [Example 26, 4-((5-(6-((1-(Cyclopropylsulfonyl)cyclopropyl)methyl)-1-methyl-7-oxo-4,5,6,7-tetrahydro-1H-pyrazolo[3,4-c]pyridin-3-yl)-1,3,4-oxadiazol-2-yl)methyl)benzonitrile]
IC50 (CMV-polymerase; [2]): 52 nM
EC50 (CMV): 761 nM

Cn1nc(-c2nc(Cc3ccc(C#N)cc3)no2)c2c1C(=O)N(CC1(S(=O)(=O)C3CC3)CC1)CC2 [Example 27, 4-((5-(6-((1-(Cyclopropylsulfonyl)cyclopropyl)methyl)-1-methyl-7-oxo-4,5,6,7-tetrahydro-1H-pyrazolo[3,4-c]pyridin-3-yl)-1,2,4-oxadiazol-3-yl)methyl)benzonitrile]
IC50 (CMV-polymerase; [1]): 7 nM
EC50 (CMV): 211 nM

Cn1nc(-c2noc(Cc3ccc(C#N)cc3)n2)c2c1C(=O)N(CC1(S(=O)(=O)C3CC3)CC1)CC2 [Example 28, 4-((3-(6-((1-(Cyclopropylsulfonyl)cyclopropyl)methyl)-1-methyl-7-oxo-4,5,6,7-tetrahydro-1H-pyrazolo[3,4-c]pyridin-3-yl)-1,2,4-oxadiazol-5-yl)methyl)benzonitrile]
IC50 (CMV-polymerase; [2]): 1 nM
EC50 (CMV): 24 nM

Cn1nc(-c2nnn(Cc3ccc(C#N)cc3)n2)c2c1C(=O)N(CC1(S(=O)(=O)C3CC3)CC1)CC2 [Example 29, 4-((5-(6-((1-(Cyclopropylsulfonyl)cyclopropyl)methyl)-1-methyl-7-oxo-4,5,6,7-tetrahydro-1H-pyrazolo[3,4-c]pyridin-3-yl)-2H-tetrazol-2-yl)methyl)benzonitrile]
IC50 (CMV-polymerase; [1]): 1 nM
EC50 (CMV): 80 nM

Cn1nc(-c2nnnn2Cc2ccc(C#N)cc2)c2c1C(=O)N(CC1(S(=O)(=O)C3CC3)CC1)CC2 [Example 30, 4-((5-(6-((1-(cyclopropylsulfonyl)cyclopropyl)methyl)-1-methyl-7-oxo-4,5,6,7-tetrahydro-1H-pyrazolo[3,4-c]pyridin-3-yl)-1H-tetrazol-1-yl)methyl)benzonitrile]
IC50 (CMV-polymerase; [1]): 940 nM
EC50 (CMV): > 10000 nM

Cn1nc(C2=NOC(c3ccc(C#N)cc3)C2)c2c1C(=O)N(CC1(S(=O)(=O)C3CC3)CC1)CC2 (centres unmarked) [Example 31, 4-(3-(6-((1-(Cyclopropylsulfonyl)cyclopropyl)methyl)-1-methyl-7-oxo-4,5,6,7-tetrahydro-1H-pyrazolo[3,4-c]pyridin-3-yl)-4,5-dihydroisoxazol-5-yl)benzonitrile]
IC50 (CMV-polymerase; [2]): 12 nM
EC50 (CMV): 101 nM

Cn1nc(-c2cc(Cc3ccc(C#N)cc3)on2)c2c1C(=O)N(CC1(S(=O)(=O)C3CC3)CC1)CC2 [Example 34, 4-((3-(6-((1-(Cyclopropylsulfonyl)cyclopropyl)methyl)-1-methyl-7-oxo-4,5,6,7-tetrahydro-1H-pyrazolo[3,4-c]pyridin-3-yl)isoxazol-5-yl)methyl)benzonitrile]
IC50 (CMV-polymerase; [2]): 1 nM
EC50 (CMV): 10 nM

Cn1nc(-c2cn(Cc3ccc(C#N)cc3)nn2)c2c1C(=O)N(CC1(S(=O)(=O)C3CC3)CC1)CC2 [Example 35, 4-((4-(6-((1-(Cyclopropylsulfonyl)cyclopropyl)methyl)-1-methyl-7-oxo-4,5,6,7-tetrahydro-1H-pyrazolo[3,4-c]pyridin-3-yl)-1H-1,2,3-triazol-1-yl)methyl)benzonitrile]
IC50 (CMV-polymerase; [2]): 3 nM
EC50 (CMV): 38 nM

Cn1nc(-c2cn(CC3CCC(F)(F)CC3)nn2)c2c1C(=O)N(CC1(S(=O)(=O)C3CC3)CC1)CC2 [Example 36, 6-((1-(Cyclopropylsulfonyl)cyclopropyl)methyl)-3-(1-((4,4-difluorocyclohexyl)methyl)-1H-1,2,3-triazol-4-yl)-1-methyl-5,6-dihydro-1H-pyrazolo[3,4-c]pyridin-7(4H)-one]
IC50 (CMV-polymerase; [1]): 5 nM
EC50 (CMV): 571 nM

Cn1nc(C(=O)NOc2ccc(Cl)cc2)c2c1C(=O)N(CC1(S(=O)(=O)C3(C)CC3)CC1)CC2 [Example 37, N-(4-Chlorophenoxy)-1-methyl-6-((1-((1-methylcyclopropyl)sulfonyl)cyclopropyl)methyl)-7-oxo-4,5,6,7-tetrahydro-1H-pyrazolo[3,4-c]pyridine-3-carboxamide]
IC50 (CMV-polymerase; [1]): 7 nM
EC50 (CMV): 105 nM

Cn1nc(C(=O)NCc2ccc(Cl)cc2)c2c1C(=O)N(CC1(S(=O)(=O)C(F)F)CC1)CC2 [Example 39, N-(4-Chlorobenzyl)-6-((1-((difluoromethyl)sulfonyl)cyclopropyl)methyl)-1-methyl-7-oxo-4,5,6,7-tetrahydro-1H-pyrazolo[3,4-c]pyridine-3-carboxamide]
IC50 (CMV-polymerase; [2]): 25 nM
EC50 (CMV): 376 nM

N#Cc1ccc(CNC(=O)c2nn(C3CC3)c3c2CCN(CC2(S(=O)(=O)C4CC4)CC2)C3=O)cc1 [Example 43, N-(4-Cyanobenzyl)-1-cyclopropyl-6-((1-(cyclopropylsulfonyl)cyclopropyl)methyl)-7-oxo-4,5,6,7-tetrahydro-1H-pyrazolo[3,4-c]pyridine-3-carboxamide]
IC50 (CMV-polymerase; [2]): 2 nM
EC50 (CMV): 66 nM
